We go through five compounds from patent EP0943615A1, “1,4-DIHYDROPYRIDINE DERIVATIVES” (Nikken Chemicals Company, Limited, priority 1996, dated 1998).

Read-outs that look alike come from different tables or passages of the source.

Data set [1] has as its system VJ-300 cells. Description: In vitro test of action suppressing proliferation of cancer cells, combined administration of doxorubicin (colony formation), resistant cells. Format: cell-based, Human. Particulars: ADM alone or ADM + test compound 1 µg/ml, LD50 of ADM relative to ADM alone in KB cells = 1, 7 days incubation, colony count.
Data set [2] deals with VJ-300 cells. Description: In vitro test of action suppressing proliferation of cancer cells, combined administration of vincristine, resistant cells. The following applies: VCR alone or VCR + test compound 1 µg/ml, LD50 of VCR relative to VCR alone in KB cells = 1. Format: cell-based, Human. The procedure: As the incubation solutions, use was made of 10% fetal calf serum (Flow Laboratories) and Eagle MEM medium (Nissui Seiyaku) containing 0.292 mg/ml of L-glutamine (Flow Laboratories). The tests of the action for overcoming resistance to anti-cancer drugs or action for increasing the effect of the anti-cancer drug with the combined administration of the anti-cancer drug doxorubicin (i.e., adriamycin, ADM) and the test compound were performed as follows:
The test cells were suspended in incubation solutions and adjusted to a cell density of about 200 cells/ml. The cell suspensions were injected in 2 ml amounts into petri dishes and were incubated in a CO2 gas incubator (5% CO2, 95% air) at 37°C for 24 hours. Then, 5 µl of a predetermined concentration of the aqueous ADM solution and a predetermined concentration of a DMSO solution of the test compound were added, then the incubation was continued for a further 7 days. After the end of the incubation, the result was immobilized with methanol, Giemsa stained and measured for the number of colonies per dish. The results were used to prepare a volume-reaction curve. […] The results are shown in Table 8 to Table 10 using the concentration of LD50 of ADM in the ADM alone group by KB cells as the resistance degree 1 and calculating the resistances of the following LD50 concentrations as relative ratios.
The same method as in Test Example 1 was used to test the action of vincristine (VCR) on anti-cancer drugs, prepare a volume-reaction curve, and calculate the resistances.

Data set [3] concerns thoracic aorta of the rat. As to the kind of experiment: Action easing KCl contraction in rat arteries (aortic ring, Magnus tube). Particulars: read-out: IC50 value (x 10^-6 M).
The next data set is described as follows: Acute toxicity test. Particulars: mouse, in vivo, ip; ddY male mice, intraperitoneally, suspended in 0.5% CMC-Na with 0.1% Tween 80, observed up until 7 days. The procedure:
• Animals used: ddY male mice (SLC Japan), 4-5 weeks old, three to five mice per group. • Test method: The compound of the present invention was suspended in 0.5% sodium carboxymethylcellulose (CMC-Na) containing 0.1% Tween 80. It was administered to the mice intraperitoneally in amounts from 1000 mg/kg to 250 mg/kg in groups of three to five mice until no more deaths were observed. The survival of the animals was observed up until 7 days after administration.

Data set [4] concerns VCR resistant murine leukemia (P388/VCR) cells. Description: In vivo test: overcoming resistance to vincristine in VCR resistant murine leukemia cell bearing mice. Particulars: P388/VCR bearing CDF1 mice, VCR 100 µg/kg alone or with compound 100 mg/kg, intraperitoneally for 5 days; for Effect of overcoming resistance T/V (%): T/C of combination over T/C of VCR alone x 100; for Rate of prolongation of life T/C (%): with respect to controls. Further details: species or system CDF1 male mice. The procedure:
10^6 VCR resistant murine leukemia (P388/VCR) cells were transplanted intraperitoneally into groups of six CDF1 male mice, then the compound of the present invention (100 mg/kg) and VCR (100 µg/kg) were administered intraperitoneally for 5 days. […] Effect of overcoming resistance to anti-cancer drug (T/V) % = [(Rate of prolongation of life using VCR and present compound (T/C))/(Rate of prolongation of life using VCR alone (T/C))] x 100 [formula]

Where [5] appears, read: 50% inhibitory concentration of hyperpotassium contraction, 50mM potassium chloride, rat thoracic aorta ring, cumulative addition.

Consider `CCOC(=O)C1=C(c2ccc(-n3c(C)nc4cnccc43)cc2)NC(C)=C(C(=O)OCCCc2cccnc2)C1C(C)C` (stereo not shown) [Compound 2, 4-isopronyl-6-methyl-2-[4-(2-methylimidazo[4,5-c]pyridin-1-yl)phenyl]-1,4-dihydronyridin-3,5-dicarboxylate 3-ethylester, 5-[3-(3-pyridyl)propyl]ester], for which the “Degree of resistance for ADM VJ-300” value with VJ-300 cells [1] was determined as 2.7. For the same compound, the “Degree of resistance for VCR VJ-300” value in the data set on VJ-300 cells [2] turned out to be 9.6. Further, the IC50 in data set [3] (setting [5]) is greater than 30000 nM. Besides, the LD50 at 168 h in “Acute toxicity test” is greater than 1000 mg/kg.
Turning to `CCCCCC1C(C(=O)OCCCc2cccnc2)=C(C)NC(c2ccc(-n3c(C)nc4ncccc43)cc2)=C1C(=O)OCC` (stereo not shown) [Compound 3, 6-methyl-2-[4-(2-methylimidazo[4,5-b]pyridin-1-yl)phenyl]-4-pentyl-1,4-dihydropyridin-3,5-dicarboxylate 3-ethylester, 5-[3-(3-pyridyl)propyl]ester], in the data set on VJ-300 cells [1], the “Degree of resistance for ADM VJ-300” value is reported as 1.2. Besides, the “Degree of resistance for VCR VJ-300” value with VJ-300 cells [2] amounted to 7.1. Also, in data set [4], the “Average days of survival” value amounted to 15.0, the “Effect of overcoming resistance T/V (%)” value is reported as 133% and the “Rate of prolongation of life T/C (%)” value is given as 127%.
Consider `CCCCCC1C(C(=O)OCCCc2cccnc2)=C(C)NC(c2ccccc2)=C1C(=O)OCC` (stereo not shown) [Compound 15, 6-methyl-4-pentyl-2-phenyl-1,4-dihydropyridin-3,5-dicarboxylate 3-ethylester, 5-[3-(3-pyridyl)propyl]ester], for which, in the data set with VJ-300 cells [1], the “Degree of resistance for ADM VJ-300” value is recorded as 3.2. Besides, the “Degree of resistance for VCR VJ-300” value with VJ-300 cells [2] turned out to be 6.5. Besides, in data set [4], the “Average days of survival” value came out at 15.7, the “Effect of overcoming resistance T/V (%)” value is 128% and the “Rate of prolongation of life T/C (%)” value was found to be 139%.
Consider `COC(=O)C1=C(C)NC(C)=C(C(=O)OCCN(C)Cc2ccccc2)C1c1cccc([N+](=O)[O-])c1` (stereo not shown) [Nicardipine], for which the IC50 in data set [3] (setting [5]) was 260 nM.
Turning to `COc1ccc(CCN(C)CCCC(C#N)(c2ccc(OC)c(OC)c2)C(C)C)cc1OC` (stereo not shown) [Verapamil], in data set [3] (Rattus norvegicus), the IC50 came to 1430 nM.

By IC50 is commonly meant the midpoint of a concentration-inhibition curve. Usually LD50 stands for the dose at which mortality reaches 50%. Low readings indicate a more toxic substance, high ones a less toxic substance.
